From US4855320A, “5-arylalkyl-4-alkoxy-2(5H)-furanones, intermediates and processes for the preparation thereof and medicaments containing them” (Dr. Willmar Schwabe GmbH & Company, priority 1986, dated 1989) come the findings set out here.

The structures appear in SMILES notation.

The assay has as its system maximum electroshock spasm (MES) in male mice (NMRI). In words: MES test (maximum electroshock spasm), inhibition of the extensor spasm. It is filed as in vivo. Conditions: Mus musculus, mice; for responders at 100 mg/kg: 100 mg/kg p.o., % of animals protected 100% against the extensor spasm; for ED50: oral, 1 hour after administration, read-out: ED 50 in the MES test.
[1] abbreviates: po, 1 hr., read-out: protective action after 1 hr. (MES test).

As to `CCOC1=CC(=O)O[C@H]1[C@H](O)c1ccccc1Cl` (relative stereo) [Example 66, threo-5-(2-chlorophenylhydroxymethyl)-4-ethoxy-2(5H)-furanone], the responders at 100 mg/kg under setting [1] turned out to be 100%.

`COC1=CC(=O)O[C@H]1[C@H](O)c1ccc(Cl)cc1` (relative stereo) [Example 67, threo-5-(4-chlorophenylhydroxymethyl)-4-methoxy-2(5H)-furanone]: the ED50 was found to be 73.5 mg/kg. Besides, under setting [1], the responders at 100 mg/kg is 75%.

Regarding `COC1=CC(=O)O[C@H]1[C@H](O)c1ccccc1Br` (relative stereo) [Example 68, threo-5-(2-bromophenylhydroxymethyl)-4-methoxy-2(5H)-furanone], the ED50 is 23.5 mg/kg. For the same compound, the responders at 100 mg/kg under setting [1] worked out at 100%.

As to `COC1=CC(=O)O[C@H]1[C@H](O)c1cccc(Br)c1` (relative stereo) [Example 69, threo-5-(3-bromophenylhydroxymethyl)-4-methoxy-2(5H)-furanone], the ED50 came to 93 mg/kg. The responders at 100 mg/kg under setting [1] was found to be 70%.

With `COC1=CC(=O)O[C@H]1[C@H](O)c1ccccc1F` (relative stereo) [Example 70, threo-5-(2-fluorophenylhydroxymethyl)-4-methoxy-2(5H)-furanone], the ED50 was 22 mg/kg. In addition, the responders at 100 mg/kg under setting [1] worked out at 100%.

For the compound `COC1=CC(=O)O[C@H]1[C@H](O)c1ccccc1C(F)(F)F` (relative stereo) [Example 71, threo-4-methoxy-5-(2-trifluoromethylphenylhydroxymethyl)-2-(5H)-furanone], the responders at 100 mg/kg under setting [1] worked out at 100%.

As for `COC1=CC(=O)O[C@H]1[C@H](O)c1cccc(C(F)(F)F)c1` (relative stereo) [Example 72, threo-4-methoxy-5-(3-trifluoromethylphenylhydroxymethyl)-2(5H)-furanone], the responders at 100 mg/kg under setting [1] amounted to 80%.

As for `COC1=CC(=O)O[C@H]1[C@H](O)c1ccc(C(F)(F)F)cc1` (relative stereo) [Example 73, threo-4-methoxy-5-(4-trifluoromethylphenylhydroxymethyl)-2(5H)-furanone], the responders at 100 mg/kg under setting [1] turned out to be 60%.

On to `COC1=CC(=O)O[C@H]1[C@H](O)c1ccccc1[N+](=O)[O-]` (relative stereo) [Example 74, threo-4-methoxy-5-(2-nitrophenylhydroxymethyl)-2(5H)-furanone], for which the responders at 100 mg/kg under setting [1] worked out at 100%.

With `CCOC1=CC(=O)O[C@H]1[C@H](O)c1ccc(Cl)cc1Cl` (relative stereo) [Example 80, threo-5-(2,4-dichlorophenylhydroxymethyl)-4-ethoxy-2(5H)-furanone], the responders at 100 mg/kg under setting [1] was 90%.

As to `CCOC1=CC(=O)O[C@H]1[C@H](O)c1cc(Cl)ccc1Cl` (relative stereo) [Example 82, threo-5-(2,5-dichlorophenylhydroxymethyl)-4-ethoxy-2(5H)-furanone], the responders at 150 mg/kg (po, 150 mg/kg p.o., 1 hr., read-out: protective action after 1 hr. (MES test)) worked out at 90%.

On to `COC1=CC(=O)O[C@H]1[C@H](O)c1ccc(Cl)c(Cl)c1` (relative stereo) [Example 83, threo-5-(3,4-dichlorophenylhydroxymethyl)-4-methoxy-2(5H)-furanone], for which the responders at 100 mg/kg under setting [1] amounted to 50%.

As for `COC1=CC(=O)O[C@H]1[C@H](O)c1cc(Cl)cc(Cl)c1` (relative stereo) [Example 84, threo-5-(3,5-dichlorophenylhydroxymethyl)-4-methoxy-2(5H)-furanone], the responders at 100 mg/kg under setting [1] worked out at 70%.

On to `COC1=CC(=O)O[C@H]1[C@H](O)c1cc(C(F)(F)F)ccc1Cl` (relative stereo) [Example 86], for which the responders at 50 mg/kg (po, 50 mg/kg p.o., 1 hr., read-out: protective action after 1 hr. (MES test)) was determined as 100%.

Take `COC1=CC(=O)O[C@H]1[C@H](O)c1ccc(Cl)cc1C(F)(F)F` (relative stereo) [Example 87, threo-5-[(4-chloro-2-trifluoromethylphenyl)-hydroxymethyl]-4-methoxy-2(5H)-furanone]: under setting [1], the responders at 100 mg/kg was 40%.

As to `COC1=CC(=O)O[C@H]1[C@H](O)c1ccc(Br)cc1Cl` (relative stereo) [Example 88, threo-5-[(4-bromo-2-chlorophenyl)-hydroxymethyl]-4-methoxy-2(5H)-furanone], the responders at 100 mg/kg under setting [1] was 80%.

In the case of `COC1=CC(=O)O[C@@]1(C)[C@H](O)c1ccccc1Cl` (relative stereo) [Example 89, threo-5-(2-Chlorophenylhydroxymethyl)-4-methoxy-5-methyl-2(5H)-furanone], the responders at 100 mg/kg under setting [1] turned out to be 100%.

With `COC1=CC(=O)O[C@H]1[C@H](O)c1ccccc1C` (relative stereo) [Example 93, threo-4-methoxy-5-(2-methylphenylhydroxymethyl)-2(5H)-furanone], the responders at 100 mg/kg under setting [1] was found to be 37.5%.

Consider `COC1=CC(=O)O[C@H]1[C@H](O)c1cccc(F)c1` (relative stereo) [Example 96, threo-5-(3-fluorophenylhydroxymethyl)-4-methoxy-2-(5H)-furanone], for which the ED50 is 74 mg/kg. Further, under setting [1], the responders at 100 mg/kg was found to be 62.5%.

`COC1=CC(=O)O[C@H]1[C@H](O)c1cccc(Cl)c1` (relative stereo) [Example 98, threo-5-(3-chlorophenylhydroxymethyl)-4-methoxy-2(5H)-furanone]: the ED50 came to 84.5 mg/kg. The responders at 100 mg/kg under setting [1] was 25%.

As for `CCCOC1=CC(=O)O[C@H]1[C@H](O)c1ccccc1Cl` (relative stereo) [Example 99, threo-5-(2-chlorophenylhydroxymethyl)-4-propoxy-2-(5H)-furanone], under setting [1], the responders at 100 mg/kg amounted to 90%.

On to `COC1=CC(=O)O[C@H]1[C@H](O)c1ccc(Br)cc1` (relative stereo) [Example 100, threo-5-(4-bromophenylhydroxymethyl)-4-methoxy-2(5H)-furanone], for which the ED50 came to 67 mg/kg. Besides, under setting [1], the responders at 100 mg/kg turned out to be 100%.

As to `COC1=CC(=O)O[C@H]1[C@H](O)c1c(F)cccc1Cl` (relative stereo) [Example 102, threo-5-(2-chloro-6-fluorophenylhydroxymethyl)-4-methoxy-2(5H)-furanone], under setting [1], the responders at 100 mg/kg worked out at 62.5%.

Consider `COC1=CC(=O)O[C@H]1[C@H](O)c1c(Cl)cccc1Cl` (relative stereo) [Example 103, threo-5-(2,6-dichlorophenylhydroxymethiyl)-4-methoxy-2(5H)-furanone], for which the ED50 is 37 mg/kg. In addition, the responders at 100 mg/kg under setting [1] was found to be 100%.

On to `COC1=CC(=O)O[C@H]1[C@H](O)CCc1ccccc1` (relative stereo) [Example 105, threo-4-methoxy-5-(α-hydroxy-γ-phenylpropyl)-2(5H)-furanone], for which the responders at 100 mg/kg under setting [1] worked out at 12.5%.

As for `CCOC1=CC(=O)O[C@H]1[C@H](OC)c1ccc(Cl)cc1Cl` (relative stereo) [Example 106, threo-4-Ethoxy-5-[methoxy-(2,4-dichlorophenyl)-methyl]-2(5H)-furanone], the responders at 100 mg/kg under setting [1] turned out to be 30%.

Regarding `COCO[C@H](c1ccccc1Cl)[C@@H]1OC(=O)C=C1OC` (relative stereo) [Example 107, threo-4-Methoxy-5-[methoxymethoxy-(2-chlorophenyl)-methyl]-2(5H)-furanone], the ED50 was found to be 24.5 mg/kg. The responders at 100 mg/kg under setting [1] turned out to be 100%.

With `COCCOCO[C@H](c1ccccc1Cl)[C@@H]1OC(=O)C=C1OC` (relative stereo) [Example 108, threo-4-Methoxy-5-[methoxyethoxymethoxy-(2-chlorophenyl)-methyl]-2(5H)-furanone], the responders at 100 mg/kg under setting [1] was determined as 70%.

For the compound `COC1=CC(=O)O[C@H]1[C@H](OC)c1ccccc1` (relative stereo) [Example 109, threo-4-methoxy-5-[methoxy-(phenyl)-methyl]-2(5H)-furanone], the responders at 100 mg/kg under setting [1] worked out at 40%.

Regarding `COC1=CC(=O)O[C@H]1[C@H](OC)c1ccccc1Cl` (relative stereo) [Example 110, threo-4-methoxy-5-[methoxy-(2-chlorophenyl)-methyl]-2(5H)-furanone], the ED50 was determined as 27.5 mg/kg. Further, the responders at 100 mg/kg under setting [1] is 100%.

As for `COC1=CC(=O)O[C@H]1[C@H](OC)c1ccc(Cl)cc1Cl` (relative stereo) [Example 111, threo-4-methoxy-5-[methoxy-(2,4-dichlorophenyl)-methyl]-2(5H)-furanone], the responders at 100 mg/kg under setting [1] came out at 100%.

In the case of `COC1=CC(=O)O[C@H]1[C@H](OC)c1cc(Cl)ccc1Cl` (relative stereo) [Example 112, threo-4-methoxy-5-[methoxy-(2,5-dichlorophenyl)-methyl]-2(5H)-furanone], the responders at 100 mg/kg under setting [1] came to 100%.

Turning to `COCO[C@H](c1ccccc1)[C@@H]1OC(=O)C=C1OC` (relative stereo) [Example 113, threo-4-methoxy-5-[methoxymethoxy-(phenyl)-methyl]-2(5H)-furanone], the responders at 100 mg/kg under setting [1] was determined as 100%.

In the case of `COCO[C@H](c1ccc(Cl)cc1Cl)[C@@H]1OC(=O)C=C1OC` (relative stereo) [Example 114, threo-4-methoxy-5-[methoxymethoxy-(2,4-dichlorophenyl)-methyl]-2(5H)-furanone], the responders at 100 mg/kg under setting [1] stood at 10%.

Consider `COCO[C@H](c1ccccc1F)[C@@H]1OC(=O)C=C1OC` (relative stereo) [Example 115, threo-4-methoxy-5-[methoxymethoxy-(2-fluorophenyl)-methyl]2(5H)-furanone], for which the responders at 100 mg/kg under setting [1] came to 100%.

As to `COCO[C@H](c1ccccc1C)[C@@H]1OC(=O)C=C1OC` (relative stereo) [Example 116, threo-4-methoxy-5-[methoxymethoxy-(2-methylphenyl)-methyl]-2(5H)-furanone], the responders at 100 mg/kg under setting [1] came to 70%.

In the case of `COCO[C@H](c1ccccc1Br)[C@@H]1OC(=O)C=C1OC` (relative stereo) [Example 118, threo-4-methoxy-5-[methoxymethoxy-(2-bromophenyl)-methyl]-2(5H)-furanone], under setting [1], the responders at 100 mg/kg came to 100%.
